The values below come from patent publication EP4755890A1, “OXO-TRICYCLIC DERIVATIVE AND PHARMACEUTICAL USE THEREOF” (Haisco Pharmaceutical Group Co., Ltd., priority 2023, dated 2025).

pIC50: −log10 of the molar value.

Test [1] concerns the target T1, WRN protein (AA N517-P1238, ICE) (Homo sapiens, UniProt Q14191).
T1 construct: WRN protein (AA N517-P1238, ICE); purchased ICE
Nature of the test: Assay for ATPase activity of WRN helicase (ADP-Glo). The note with it: inhibition of ATPase activity of WRN helicase; 0.3 nM WRN, 0.2 nM DNA substrate, 10 µM ATP. In kind it is biochemical. Here is the method:
The assay buffer working solution was as follows: 30 mM Tris pH 7.5 + 0.02% BSA + 2 mM MgCl2 + 50 mM NaCl + 0.1% Pluronic® F127 + 1 mM DTT. WRN protein (AA N517-P1238, ICE) was obtained through protein expression and purification in vitro. A single-stranded DNA substrate ([…]) was synthesized in vitro. 1 µL each of compounds at different concentrations, the WRN protein, and the DNA substrate, together with 2 µL of ATP, were added to a 384-well white plate. The working concentrations of the WRN protein, the DNA substrate, and the ATP were 0.3 nM, 0.2 nM, and 10 µM, respectively. The plate was incubated at room temperature for 20 minutes. After the incubation was completed, the detection was performed in accordance with the instructions of the ADP-Glo Assay Kit (Promega), and the chemiluminescence value was read.
The inhibition rate was calculated according to Formula 1, where RLUsample is the readout of the compound well, RLUmax is the readout of the DMSO control well, and RLUmin is the readout of the control well without the WRN protein. Curve fitting was performed via a four-parameter logistic model (log(inhibitor) vs. response -- Variable slope) using GraphPad Prism software, and the IC50 value was calculated. Inhibition% = (1−(RLUsample−RLUmin)/(RLUmax−RLUmin)) × 100% [formula] Table 1. Results of inhibitory activity of test compounds against ATPase activity of WRN helicase

The subject of the next test is SW48 Xenograft Tumor. Nature of the test: In vivo efficacy assay of SW48 xenograft tumor. The arrangement: species or system BALB/c nude mice. The note with it: after 14 days of administration. Here is the method:
The culture conditions for SW48 cells were as follows: Leibovitz L15 + 10% FBS + 1% penicillin-streptomycin, and the cells were cultured in an incubator without CO2 at 37°C. When the cell confluency reached 80%-90% and the cell number met the requirement, the cells were harvested and counted. 0.1 mL of SW48 cell suspension (5 × 10^6 cells) was subcutaneously inoculated into the right posterior back of female BALB/c nude mice. When the average tumor volume reached 100-150 mm^3, the mice were grouped according to their tumor volumes, with 10 animals per group. The test compounds at different dosages were administered to the animals in each group via intragastric administration once daily. The day of grouping was recorded as D0. During the experiment, the body weights and tumor diameters of the animals were measured three times a week. The tumor volume was calculated according to the formula V = 0.5 × a × b^2, where a and b represent the long diameter and short diameter of the tumor, respectively. The tumor inhibitory efficacy of the test compounds was evaluated by tumor growth inhibition rate (TGI%). [formula]

A further test deals with HCT-116 cells. Nature of the test: HCT-116 cell proliferation inhibition assay (CellTiter-Glo). In kind it is cell-based. The note with it: Homo sapiens, 96 h, 4 days, read-out: Inhibitory activity against HCT-116 cell proliferation IC50. On the procedure:
The culture conditions for HCT-116 cells were as follows: RPMI-1640 + 10% FBS + 1% penicillin-streptomycin, and the cells were cultured in an incubator with 5% CO2 at 37°C. On the first day, the HCT-116 cells in the exponential growth phase were collected and plated in 96-well cell culture plates at a density of 800 cells/well (180 µL/well). The plates were cultured overnight in an incubator with 5% CO2 at 37°C. T0 wells were plated simultaneously during the plating process. The next day, 20 µL of compounds at different concentrations were added to each well (nine compound concentration gradients, one DMSO well, and one blank well; each compound concentration was plated in triplicate), and the final concentration of DMSO in each well was 0.1%. The plates were cultured in an incubator with 5% CO2 at 37°C for 4 days. On the same day of compound addition, the T0 plate was detected using the CellTiter-Glo Kit, and the detected value was recorded as RLU0. After the culture was completed, 100 µL of detection solution (Cell Viability Assay, Promega) was added to each well. […] The chemiluminescence reading was read using a BMG microplate reader (PHERAstar FSX). […] In the formula, RLUcompound is the readout of the drug-treated group, RLUcontrol is the average value of the compound vehicle control group, and RLUBlank is the average value of the blank control group. […]
(Cellular ATP, detected with luciferase, serves as a proxy for viable cell number.)

The target in another test is T2, hERG potassium channel (Homo sapiens, UniProt Q12809).
T2 construct: expressed in transfected cells
T2 sequence (Q12809 whole entry): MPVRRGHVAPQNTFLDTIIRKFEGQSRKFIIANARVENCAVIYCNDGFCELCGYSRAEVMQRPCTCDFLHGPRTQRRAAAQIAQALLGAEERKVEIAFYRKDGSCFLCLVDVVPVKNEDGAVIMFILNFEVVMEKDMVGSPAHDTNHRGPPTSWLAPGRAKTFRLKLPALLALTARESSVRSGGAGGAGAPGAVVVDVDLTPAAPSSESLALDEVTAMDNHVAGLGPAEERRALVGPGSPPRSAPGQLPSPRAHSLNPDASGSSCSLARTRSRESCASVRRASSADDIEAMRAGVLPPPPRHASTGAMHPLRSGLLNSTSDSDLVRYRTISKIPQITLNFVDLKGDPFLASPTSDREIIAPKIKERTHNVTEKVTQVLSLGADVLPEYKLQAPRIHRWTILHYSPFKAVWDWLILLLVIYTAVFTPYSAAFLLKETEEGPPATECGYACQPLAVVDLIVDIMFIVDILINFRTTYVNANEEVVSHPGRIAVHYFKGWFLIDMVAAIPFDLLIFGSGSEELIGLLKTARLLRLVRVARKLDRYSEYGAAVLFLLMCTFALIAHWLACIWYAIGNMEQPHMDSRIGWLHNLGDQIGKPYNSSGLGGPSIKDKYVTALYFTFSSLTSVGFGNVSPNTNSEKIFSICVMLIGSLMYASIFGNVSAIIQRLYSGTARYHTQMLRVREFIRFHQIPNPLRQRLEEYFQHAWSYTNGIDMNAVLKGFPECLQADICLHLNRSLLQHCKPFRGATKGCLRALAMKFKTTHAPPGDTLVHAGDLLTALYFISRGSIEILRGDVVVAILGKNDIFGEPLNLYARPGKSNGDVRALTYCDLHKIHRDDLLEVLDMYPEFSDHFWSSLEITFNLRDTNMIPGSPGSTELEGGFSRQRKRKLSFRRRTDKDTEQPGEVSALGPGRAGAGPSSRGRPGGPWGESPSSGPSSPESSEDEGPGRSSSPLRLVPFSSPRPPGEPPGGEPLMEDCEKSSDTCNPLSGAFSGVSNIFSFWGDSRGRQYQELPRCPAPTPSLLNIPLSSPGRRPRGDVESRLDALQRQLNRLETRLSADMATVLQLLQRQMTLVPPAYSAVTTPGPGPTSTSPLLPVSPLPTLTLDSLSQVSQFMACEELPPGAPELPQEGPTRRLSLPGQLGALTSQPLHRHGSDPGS
The test can be described thus: hERG potassium channel activity assay (manual whole-cell patch clamp). The test is classed as cell-based. From the text: Experimental platform: Manual electrophysiological patch-clamp system
Cell line: Chinese hamster ovary (CHO) cell line stably expressing hERG potassium channel
Experimental method: In Chinese Hamster Ovary (CHO) cells stably expressing hERG potassium channel, whole-cell patch-clamp technique was used to record hERG potassium channel current at room temperature. The glass microelectrodes were pulled from glass electrode blanks (BF150-86-10, Sutter) by a glass microelectrode puller. The tip resistance of the microelectrodes after being filled with intrapipette solution was about 2-5 MΩ. The glass microelectrodes were connected to the patch-clamp amplifier by inserting them into an amplifier probe. The clamping voltage and data recording were controlled and recorded by the pClamp 10 software through a computer, with a sampling frequency of 10 kHz and a filtering frequency of 2 kHz. […]
Compound IC50 was calculated using GraphPad Prism 5 software by fitting according to the following equation: Y = Bottom + (Top−Bottom)/(1+10^(∧)((LogIC50−X)*HillSlope)) [formula] where X is the Log value of the test compound concentration, Y is the inhibition percentage at the corresponding concentration, and Bottom and Top are the minimum and maximum inhibition percentage, respectively.
A general note: The hERG channel carries a current that helps repolarise heart muscle cells.

T1 sequence (Q14191 517-1238): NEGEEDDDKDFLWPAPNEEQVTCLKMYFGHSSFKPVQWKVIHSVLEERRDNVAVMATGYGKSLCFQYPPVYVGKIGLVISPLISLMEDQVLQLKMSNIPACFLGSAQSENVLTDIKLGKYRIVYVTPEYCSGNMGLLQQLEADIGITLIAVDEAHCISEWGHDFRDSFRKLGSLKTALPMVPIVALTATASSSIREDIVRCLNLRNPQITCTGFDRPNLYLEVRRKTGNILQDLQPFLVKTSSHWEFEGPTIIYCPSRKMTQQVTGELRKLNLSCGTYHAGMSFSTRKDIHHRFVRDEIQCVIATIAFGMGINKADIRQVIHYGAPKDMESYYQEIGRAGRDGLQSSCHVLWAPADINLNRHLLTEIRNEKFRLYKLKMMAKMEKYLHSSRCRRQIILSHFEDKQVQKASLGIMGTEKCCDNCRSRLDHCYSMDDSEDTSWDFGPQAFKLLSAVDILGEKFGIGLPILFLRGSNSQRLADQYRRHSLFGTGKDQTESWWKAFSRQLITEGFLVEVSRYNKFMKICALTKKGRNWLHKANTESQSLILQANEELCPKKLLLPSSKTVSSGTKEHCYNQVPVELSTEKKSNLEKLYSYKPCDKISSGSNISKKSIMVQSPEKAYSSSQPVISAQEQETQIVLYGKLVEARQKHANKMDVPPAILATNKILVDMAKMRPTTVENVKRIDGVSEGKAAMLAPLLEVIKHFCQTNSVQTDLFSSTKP

Consider `Cc1ncnc(C(=O)N2CCN(c3c4n(c5nc(C6=CCOCC6)nn5c3=O)[C@@H](C(=O)Nc3ccc(C(F)(F)F)cc3Cl)CCC4)CC2)c1O` [Compound 1-B], for which the pIC50 in test [1] was more than 7.70; in the test with HCT-116 cells, more than 7.00; against hERG potassium channel it was less than 4.40. In the test with SW48 Xenograft Tumor (intragastric once daily), the “growth of SW48 tumors” value is recorded as “significantly inhibit”. For the same molecule, the tumor shrinkage result in the test on SW48 Xenograft Tumor (dosage group of 15 mg/kg) and in the test with SW48 Xenograft Tumor (dosage group of 50 mg/kg) was “tumor shrinkage can be observed” each time.
As for `Cc1ncnc(C(=O)N2CCN(c3c4n(c5nc(C6=CCOCC6)nn5c3=O)C(C(=O)Nc3ccc(C(F)(F)F)cc3Cl)CCC4)C[C@H]2C)c1O` (single isomer, unassigned) [Compound 8-B], the pIC50 at hERG potassium channel is less than 4.40.
